# Reference: US20100285959A1, “HERBICIDAL MIXTURES” (priority 2006, published 2010)
# Columns and labels:
# [1] = tested on: Canada horseweed (ERICA); experiment: Test 9 field trial, emerged weeds before corn planting; format: in vivo, Erigeron canadensis; conditions: g a.i./ha: Cpd 2 100, Glyphosate 1540, Paraquat 1150
# Protocol: (§1) Corn seeds (hybrid ‘Pioneer 34M91 RR’) were planted in mid spring season, about 3.8 cm deep in a silty clay loam soil having a pH of 6.7. Plots were 9.1 m long by 3.0 m. The field was managed using no-till practices. […] Compound 2 and paraquat treatments, alone and in combination, also included a surfactant. Glyphosate, alone and with Compound 2, included ammonium sulfate in the treatment mixture. […] The effects on the weeds in the treated plots and untreated control plots were recorded 7, 14, 23, 30 and 57 days after application. Most of the weed species could not be evaluated at every timing. Corn response was only evaluated 57 days after application. […] Results are the means of the three replicates.
# [2] = tested on: giant ragweed (AMBTR); experiment: as above; format: in vivo, Ambrosia trifida; conditions: g a.i./ha: Cpd 2 100, Glyphosate 1540, Paraquat 1150
# Protocol: as §1
# [3] = tested on: red deadnettle (LAMPU); experiment: as above; format: in vivo, Lamium purpureum; conditions: g a.i./ha: Cpd 2 100, Glyphosate 1540, Paraquat 1150
# Protocol: as §1
# [4] = tested on: barley (HORVX); experiment: Test 30 growth chamber, postemergence; format: in vivo, Hordeum vulgare
# Protocol: A growth chamber test was conducted to evaluate the effects on the plant species wheat (TRZAW, Triticum aestivum L.) and barley (HORVX, Hordeum vulgare L.) with mixtures of Compound 1 and Compound 2 with glycerol. Wheat and barley seeds were planted in a sandy loam soil having 0.9% organic matter and a pH of 6.3. […] Wheat and barley plants were treated postemergence at the two leaf growth stage for Compound 1 and at the three leaf growth stage for Compound 2. Each treatment was replicated one time. […] Plants were watered as needed. […] Colby's Equation was used to determine herbicidal effects expected from the mixtures.
# [5] = tested on: giant foxtail (SETFA); experiment: Test 14 field trial, preemergence, growth as percent of control; format: in vivo, Setaria faberi
# Source text: Corn seeds (hybrid ‘Pioneer 31G96 RR’) were planted in mid spring season, 3.8 cm deep in a clay loam soil having 2% organic matter and a pH of 6.6. Plots were 6.1 m long by 3.0 m wide with rows spaced 76 cm apart. Seeds were spaced 15 cm apart within the rows. The field was managed using conventional tillage practices. […] Yellow nutsedge was only evaluated 19 and 28 days after application, and ivyleaf morningglory could only be evaluated 28 days after application. […] Results are the means of the three replicates. This growth inhibition data was converted to results in the form of “plant growth as a percent of control plant growth” using the calculation “100 minus growth inhibition”. […] For “growth as a percent of control” data, Colby's Equation calculates the expected additive effect of herbicidal mixtures having two active ingredients as follows:
# Ga+b=GaGb/100 • wherein Ga+b is the growth as a percent of control of plants treated with the mixture expected from additive contribution of the individual components, • Ga is the observed growth as a percent of control of plants treated with the first active ingredient at the same use rate as in the mixture, and • Gb is the observed growth as a percent of control of plants treated with the second active ingredient at the same use rate as in the mixture. For mixtures having three active ingredients, Colby's Equation to calculate the expected additive effect of herbicidal mixtures is as follows:
# Ga+b+c=GaGbGc/10,000 • wherein Ga and Gb are as defined above and • Ga+b+c is the growth as a percent of control of plants treated with the mixture expected from additive contribution of the individual components, and • Gc is the observed growth as a percent of control of plants treated with the third active ingredient at the same use rate as in the mixture. When these two forms of Colby's Equation are used, if the observed effects on weeds are less than the expected values, the mixture is synergistic.
# [6] = tested on: winter wheat (TRZAW); experiment: Test 21 growth chamber, postemergence; format: in vivo, Triticum aestivum; conditions: 19 DAA
# Protocol: (§2) A test was conducted to evaluate the effects on winter barley (HORVW, Hordeum vulgare L.), winter wheat (TRZAW, Triticum aestivum L.), and several weed species, of mixtures of Compound 2 with the commercial herbicide (2,4-dichlorophenoxy)acetic acid (2,4-D), an auxin mimic. […] Plants were treated postemergence at the 2-4 leaf growth stage, and each treatment was replicated one time. […] Plants were watered as needed. […] Results are from single replicates.
# [7] = tested on: kochia (KCHSC); experiment: Test 22 growth chamber, postemergence; format: in vivo, Kochia scoparia; conditions: 25 DAA
# Protocol: as §2, with “species” for “species,”, “herbicides” for “herbicide”, “(2,4-D) and (4-chloro-2-methylphenoxy)acetic acid (MCPA),” for “(2,4-D), an”, “mimics.” for “mimic.”, “stage, except KCHSC, SASKR” for “stage,”, “STEME which were in the 4-8 leaf growth stage. Each” for “each”
# [8] = tested on: winter barley (HORVW); experiment: Test 23 growth chamber, postemergence; format: in vivo, Hordeum vulgare; conditions: 21 DAA
# Protocol: as §2, with “species” for “species,”, “herbicides” for “herbicide”, “(2,4-D) and (4-chloro-2-methylphenoxy)acetic acid (MCPA),” for “(2,4-D), an”, “mimics.” for “mimic.”, “three times.” for “one time.”, “means of the three” for “from single”
# [9] = tested on: common lambsquarters (CHEAL); experiment: Test 21 growth chamber, postemergence; format: in vivo, Chenopodium album; conditions: 19 DAA
# Protocol: as §2
# [10] = tested on: wild mustard (SINAR); experiment: Test 21 growth chamber, postemergence; format: in vivo, Sinapis arvensis; conditions: 19 DAA
# Protocol: as §2
# [11] = tested on: Russian thistle (SASKR); experiment: Test 23 growth chamber, postemergence; format: in vivo, Salsola kali; conditions: 21 DAA
# Protocol: as §2, with “species” for “species,”, “herbicides” for “herbicide”, “(2,4-D) and (4-chloro-2-methylphenoxy)acetic acid (MCPA),” for “(2,4-D), an”, “mimics.” for “mimic.”, “three times.” for “one time.”, “means of the three” for “from single”
# [12] = 2,4-D or MCPA alone 250 g a.i./ha
smiles,measurement,setting,value
O=C(O)CNCP(=O)(O)O [Glyphosate],ERICA Obs,[1]; 7 DAA,45%
same,ERICA Obs,[1]; 14 DAA,76%
same,ERICA Obs,[1]; 23 DAA,98%
same,ERICA Obs,[1]; 30 DAA,100%
same,ERICA Obs,[1]; 57 DAA,84%
same,AMBTR Obs,[2]; 7 DAA,25%
same,AMBTR Obs,[2]; 14 DAA,77%
same,AMBTR Obs,[2]; 57 DAA,85%
same,LAMPU Obs,[3]; 7 DAA,55%
same,LAMPU Obs,[3]; 14 DAA,60%
same,LAMPU Obs,[3]; 23 DAA,77%
same,LAMPU Obs,[3]; 30 DAA,79%
same,LAMPU Obs,[3]; 57 DAA,95%
"Nc1nc(C2CC2)nc(C(=O)O)c1Cl [Compound 1, 6-amino-5-chloro-2-cyclopropyl-4-pyrimidinecarboxylic acid]",HORVX Obs,"[4]; 18 DAA, Cpd 1 1 g a.i./ha",0%
same,HORVX Obs,"[4]; 18 DAA, Cpd 1 4 g a.i./ha",20%
same,HORVX Obs,"[4]; 18 DAA, Cpd 1 16 g a.i./ha",40%
"CCc1cccc(C)c1N(C(=O)CCl)[C@@H](C)COC [S-Metolachlor, S-metolachlor, reference compound]",Obs growth % of control,"[5]; 19 DAA, 1870 g a.i./ha",7%
same,Obs growth % of control,"[5]; 28 DAA, 1870 g a.i./ha",5%
same,Obs growth % of control,"[5]; 56 DAA, 1870 g a.i./ha",1%
"COC(=O)c1nc(C2CC2)nc(N)c1Cl [Compound 2, methyl 6-amino-5-chloro-2-cyclopropyl-4-pyrimidinecarboxylate]",ERICA Obs,[1]; 7 DAA,62%
same,ERICA Obs,[1]; 14 DAA,68%
same,ERICA Obs,[1]; 23 DAA,75%
same,ERICA Obs,[1]; 30 DAA,83%
same,ERICA Obs,[1]; 57 DAA,100%
same,AMBTR Obs,[2]; 7 DAA,85%
same,AMBTR Obs,[2]; 14 DAA,83%
same,AMBTR Obs,[2]; 57 DAA,89%
same,Obs growth % of control,"[5]; 19 DAA, 75 g a.i./ha",58%
same,Obs growth % of control,"[5]; 19 DAA, 100 g a.i./ha",48%
same,Obs growth % of control,"[5]; 28 DAA, 75 g a.i./ha",68%
same,Obs growth % of control,"[5]; 28 DAA, 100 g a.i./ha",67%
same,Obs growth % of control,"[5]; 56 DAA, 75 g a.i./ha",92%
same,Obs growth % of control,"[5]; 56 DAA, 100 g a.i./ha",97%
same,Postemergence TRZAW Obs,[6]; Cpd 2 alone 16 g a.i./ha,50
same,HORVX Obs,"[4]; 17 DAA, Cpd 2 1 g a.i./ha",25%
same,HORVX Obs,"[4]; 17 DAA, Cpd 2 4 g a.i./ha",30%
same,HORVX Obs,"[4]; 17 DAA, Cpd 2 16 g a.i./ha",35%
same,Postemergence KCHSC Obs,[7]; Cpd 2 alone 4 g a.i./ha,45
same,Postemergence KCHSC Obs,[7]; Cpd 2 alone 8 g a.i./ha,50
same,Postemergence KCHSC Obs,[7]; Cpd 2 alone 16 g a.i./ha,60
same,LAMPU Obs,[3]; 7 DAA,45%
same,LAMPU Obs,[3]; 14 DAA,23%
same,LAMPU Obs,[3]; 23 DAA,58%
same,LAMPU Obs,[3]; 30 DAA,65%
same,Postemergence HORVW Obs,[8]; Cpd 2 alone 4 g a.i./ha,32
same,Postemergence HORVW Obs,[8]; Cpd 2 alone 8 g a.i./ha,38
same,Postemergence HORVW Obs,[8]; Cpd 2 alone 16 g a.i./ha,38
same,Postemergence CHEAL Obs,[9]; Cpd 2 alone 16 g a.i./ha,60
same,Postemergence SINAR Obs,[10]; Cpd 2 alone 16 g a.i./ha,65
same,Postemergence SASKR Obs,[11]; Cpd 2 alone 4 g a.i./ha,55
same,Postemergence SASKR Obs,[11]; Cpd 2 alone 8 g a.i./ha,63
same,Postemergence SASKR Obs,[11]; Cpd 2 alone 16 g a.i./ha,72
"O=C(O)COc1ccc(Cl)cc1Cl [2,4-D, (2,4-dichlorophenoxy)acetic acid]",Postemergence TRZAW Obs,"[6]; 2,4-D alone 125 g a.i./ha",35
same,Postemergence TRZAW Obs,"[6]; 2,4-D alone 250 g a.i./ha",40
same,Postemergence KCHSC Obs,[7]; [12],60
same,Postemergence HORVW Obs,[8]; [12],25
same,Postemergence CHEAL Obs,"[9]; 2,4-D alone 125 g a.i./ha",40
same,Postemergence CHEAL Obs,"[9]; 2,4-D alone 250 g a.i./ha",40
same,Postemergence SINAR Obs,"[10]; 2,4-D alone 125 g a.i./ha",85
same,Postemergence SINAR Obs,"[10]; 2,4-D alone 250 g a.i./ha",65
same,Postemergence SASKR Obs,[11]; [12],63
